In US6608082B1, “Treatment of erectile dysfunction using isoquinoline compound melanocortin receptor ligands” (Lion Bioscience AG, priority 1998, dated 2003):
Like-named read-outs stand apart in the source and are kept apart here.

Assays:
[1] = target: T1, MCR-1 (Homo sapiens, UniProt Q01726); experiment: Melanocortin receptor binding assay, competition with 125I-HP 467, HEK 293 cells expressing hMCR-1; settings: for IC50: read-out: MC-1 IC50
T1 construct: expressed in transfected cells; host or cells: HEK 293
T1 sequence (Q01726 whole entry): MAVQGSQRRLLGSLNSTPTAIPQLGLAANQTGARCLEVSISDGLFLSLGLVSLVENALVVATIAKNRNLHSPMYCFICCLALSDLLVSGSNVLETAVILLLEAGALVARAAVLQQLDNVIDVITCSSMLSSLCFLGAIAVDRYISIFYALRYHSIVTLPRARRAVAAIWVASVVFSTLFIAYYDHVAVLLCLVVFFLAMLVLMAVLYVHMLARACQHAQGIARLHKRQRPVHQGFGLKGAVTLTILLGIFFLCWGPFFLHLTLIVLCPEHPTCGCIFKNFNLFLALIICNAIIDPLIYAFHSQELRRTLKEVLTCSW
Procedure, shortened: (§1)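 Intact-cell competition binding, 2.5 hr at 37 °C, in PBS/10% calf serum/1 mM CaCl2; hMCR-4 cells at 4×10^3 per tube, hMCR-1 cells at 2×10^4 per tube. Filtration on BSA/CaCl2-soaked GF/B, cold 50 mM Tris pH 7.4 washes, scintillation count.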

[2] = target: T2, MCR-4 (Homo sapiens, UniProt P32245); experiment: Melanocortin receptor binding assay, competition with 125I-HP 467, HEK 293 cells expressing hMCR-4; settings: for IC50: read-out: MC-4 IC50
T2 construct: expressed in transfected cells; host or cells: HEK 293
T2 sequence (P32245 whole entry): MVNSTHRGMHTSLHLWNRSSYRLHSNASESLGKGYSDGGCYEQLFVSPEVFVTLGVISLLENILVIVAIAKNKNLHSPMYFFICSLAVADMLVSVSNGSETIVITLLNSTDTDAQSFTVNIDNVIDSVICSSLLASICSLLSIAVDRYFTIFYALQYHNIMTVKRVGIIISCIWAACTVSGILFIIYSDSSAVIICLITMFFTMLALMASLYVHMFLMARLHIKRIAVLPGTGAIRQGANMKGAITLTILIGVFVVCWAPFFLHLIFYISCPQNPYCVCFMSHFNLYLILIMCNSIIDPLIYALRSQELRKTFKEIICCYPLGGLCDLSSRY
Procedure, shortened: as §1

[3] = competition with 125I-HP 467, HEK 293 cells expressing MCR-1
[4] = competition with 125I-HP 467, HEK 293 cells expressing MCR-4
[5] = inhibition of binding of 125I-HP 467, HEK 293 cells expressing MCR-1, TRG 2414 library
[6] = inhibition of binding of 125I-HP 467, HEK 293 cells expressing MCR-4, TRG 2414 library
[7] = TRG 2406 and TRG 2407 libraries, inhibition of binding of 125I-HP 467
[8] = TRG 2408 and TRG 2409 libraries, inhibition of 125I-HP 467 binding
[9] = inhibition of binding of 125I-HP 467, HEK 293 cells expressing MCR-1
[10] = inhibition of binding of 125I-HP 467, HEK 293 cells expressing MCR-4
[11] = TRG 2414 library, inhibition of binding of 125I-HP 467, HEK 293 cells expressing MCR-1
[12] = TRG 2414 library, inhibition of binding of 125I-HP 467, HEK 293 cells expressing MCR-4

## CCNc1ccc(C2C(CNCCc3ccccc3)c3ccccc3CN2CCCCC(CN)NCc2ccccc2)cc1 (stereo not shown) [TRG 2411-43]
[1]; [3]
  IC50: 0.19 µM
[2]; [4]
  IC50: 1.03 µM

## COc1ccc(CCNCC2c3ccccc3CN(CCCCC(CN)NCC(C)c3ccc(CC(C)C)cc3)C2c2cccc(Oc3ccccc3)c2)cc1 (stereo not shown) [TRG 2414-108]
[1]; [5]
  MC-1 IC50: no fit
[2]; [6]
  IC50: 49.2 µM

## NCC(CCCCN1Cc2ccccc2C(CNC2CCCCC2)C1c1ccc(Cl)cc1Cl)NCCc1ccccc1 (stereo not shown) [TRG 2414-38]
[1]; [5]
  IC50: 1.92 µM
[2]; [6]
  IC50: 3.96 µM

## CNC(CN)CCCCN1Cc2ccccc2C(CN2CCCCC2)C1c1ccc(Cl)cc1Cl (stereo not shown) [TRG 2407-32]
[1]; [7]
  IC50: 3.29 µM
[2]; [7]
  IC50: 2.14 µM

## NCC(CCCCN1Cc2ccccc2C(CNC2CCCCC2)C1c1ccc(Cl)cc1Cl)NCCc1ccccc1 (stereo not shown) [TRG 2408-14]
[1]; [8]
  IC50: 2.11 µM
[2]; [8]
  IC50: 5.52 µM

## COc1ccccc1CCNCC1c2ccccc2CN(CCCCC(CN)NCC(C)c2ccc(CC(C)C)cc2)C1c1ccc(Cl)cc1Cl (stereo not shown) [TRG 2414-12]
[1]; [5]
  IC50: 11.7 µM
[2]; [6]
  IC50: 34.5 µM

## CCCCNc1ccc(C2C(CN)c3ccccc3CN2CCCC(CN)NCCCC)cc1 (stereo not shown) [TRG 2411-219]
[1]; [9]
  IC50: 0.1 µM
[2]; [10]
  IC50: 2.97 µM

## CNC(CN)CCCCN1Cc2ccccc2C(CNCc2ccc(OC)cc2)C1c1ccc(Cl)cc1Cl (stereo not shown) [TRG 2407-19]
[1]; [7]
  IC50: 2.29 µM
[2]; [7]
  IC50: 2.04 µM

## NCC(CCCCN1Cc2ccccc2C(CNCCc2ccc(Oc3ccccc3)cc2)C1c1cc(C(F)(F)F)cc(C(F)(F)F)c1)NCc1ccccc1 (stereo not shown) [TRG 2421-26]
[1]; [9]
  IC50: 11.4 µM
[2]; [10]
  IC50: 12.9 µM

## CCCOc1ccc(C2C(CNCc3ccccc3O)c3ccccc3CN2CCCCC(CN)NC)cc1 (stereo not shown) [TRG 2406-16]
[1]; [7]
  IC50: 2.12 µM
[2]; [7]
  IC50: 11.6 µM

## CCNc1ccc(C2C(CNC3CCCCC3)c3ccccc3CN2CCC(N)CN)cc1 (stereo not shown) [TRG 2408-91]
[1]; [8]
  IC50: 9.94 µM
[2]; [8]
  IC50: 28.1 µM

## CCOc1ccccc1CNCC1c2ccccc2CN(CCCCC(CN)NCCc2ccccc2)C1c1ccc(Oc2ccccc2)cc1 (stereo not shown) [TRG 2414-126]
[1]; [5]
  IC50: 6.43 µM
[2]; [6]
  IC50: 18.7 µM

## NCC(CCCCN1Cc2ccccc2C(CNC2CCCCC2)C1c1cccc(Oc2ccccc2)c1)NCc1ccccc1 (stereo not shown) [TRG 2414-119]
[1]; [5]
  IC50: 5.01 µM
[2]; [6]
  IC50: 4.77 µM

## CCCOc1ccc(C2C(CNCc3ccccc3C(F)(F)F)c3ccccc3CN2CCCCC(N)CN)cc1 (stereo not shown) [TRG 2414-161]
[1]; [5]
  IC50: 7.98 µM
[2]; [6]
  IC50: 11 µM

## CCOc1ccccc1CNCC1c2ccccc2CN(CCCCC(CN)NCc2ccccc2)C1c1ccccc1Br (stereo not shown) [Cmpd 207]
[1]; [11]
  IC50: 7.67 µM
[2]; [12]
  IC50: 6.43 µM

## COc1ccc(CNC(CN)CCCCN2Cc3ccccc3C(CNCCc3ccccc3)C2c2cccc(C(F)(F)F)c2)cc1 (stereo not shown) [TRG 2421-42]
[1]; [9]
  IC50: 2.15 µM
[2]; [10]
  IC50: 1.72 µM

## COc1ccc(CNCC2c3ccccc3CN(CCCCC(CN)NCCc3ccccc3)C2c2ccc(Oc3ccccc3)cc2)cc1 (stereo not shown) [TRG 2414-142]
[1]; [5]
  IC50: 4.38 µM
[2]; [6]
  IC50: 11.3 µM

## CCCCNc1ccc(C2C(CNCCc3ccccc3)c3ccccc3CN2CCCCC(CN)NCCc2ccccc2)cc1 (stereo not shown) [TRG 2411-77]
[1]; [3]
  IC50: 0.22 µM
[2]; [4]
  IC50: 1.49 µM

## CCCCNc1ccc(C2C(CNCCc3ccccc3)c3ccccc3CN2CCCCC(CN)NCc2ccc(OC)cc2)cc1 (stereo not shown) [TRG 2411-82]
[1]; [3]
  IC50: 0.29 µM
[2]; [4]
  IC50: 1.46 µM

## CCCCNC(CN)CCCCN1Cc2ccccc2C(CNC2CCCCC2)C1c1ccc(-c2ccccc2)cc1 (stereo not shown) [TRG 2411-20]
[1]; [3]
  IC50: 0.61 µM
[2]; [4]
  IC50: 0.77 µM

## CNC(CN)CCCCN1Cc2ccccc2C(CNC2CCCCC2)C1c1ccc(-c2ccccc2)cc1 (stereo not shown) [TRG 2408-50]
[1]; [8]
  IC50: 1.55 µM
[2]; [8]
  IC50: 13.3 µM

## CCOc1ccc(CCNCC2c3ccccc3CN(CCCCC(CN)NCc3ccc(-c4ccccc4)cc3)C2c2cc(C(F)(F)F)cc(C(F)(F)F)c2)cc1 (stereo not shown) [TRG 2421-25]
[1]; [9]
  IC50: 10 µM
[2]; [10]
  IC50: 10.9 µM

## NCC(CCCCN1Cc2ccccc2C(CNCc2ccccc2C(F)(F)F)C1c1ccc(Oc2ccccc2)cc1)NCCc1ccccc1 (stereo not shown) [TRG 2414-122]
[1]; [5]
  MC-1 IC50: no fit
[2]; [6]
  IC50: 55.5 µM

## COc1ccc(CCNCC2c3ccccc3CN(CCCCC(N)CN)C2c2cc(C(F)(F)F)cc(C(F)(F)F)c2)cc1 (stereo not shown) [Cmpd 262]
[1]; [11]
  MC-1 IC50: no fit
[2]; [12]
  MC-4 IC50: no fit

## CCCCNc1ccc(C2C(CN)c3ccccc3CN2CCCCC(CN)NCc2ccc(OC)cc2)cc1 (stereo not shown) [TRG 2411-109]
[1]; [3]
  IC50: 0.1 µM
[2]; [4]
  IC50: 1.4 µM

## NCC(CCN1Cc2ccccc2C(CNC2CCCCC2)C1c1ccc(-c2ccccc2)cc1)NCCc1ccccc1 (stereo not shown) [TRG 2408-112]
[1]; [8]
  IC50: 8.79 µM
[2]; [8]
  IC50: 10.4 µM

## CCNc1ccc(C2C(CNC3CCCCC3)c3ccccc3CN2CCCC(CN)NCCN)cc1 (stereo not shown) [TRG 2408-63]
[1]; [8]
  IC50: 0.69 µM
[2]; [8]
  IC50: 18.7 µM

## NCC(CCCCN1Cc2ccccc2C(CNCc2ccccc2C(F)(F)F)C1c1ccccc1Br)NCc1ccccc1 (stereo not shown) [Cmpd 203]
[1]; [11]
  IC50: 30.2 µM
[2]; [12]
  IC50: 39.6 µM

## CCNc1ccc(C2C(CN)c3ccccc3CN2CCCC(CN)NCCc2ccc(Br)cc2)cc1 (stereo not shown) [TRG 2411-180]
[1]; [9]
  IC50: 0.12 µM
[2]; [10]
  IC50: 1.06 µM

## NCC(CCCCN1Cc2ccccc2C(CNCCc2ccccc2)C1c1cc(C(F)(F)F)cc(C(F)(F)F)c1)NCc1ccc(Br)cc1 (stereo not shown) [TRG 2421-3]
[1]; [9]
  IC50: 4.91 µM
[2]; [10]
  IC50: 9.64 µM

## CCCCNc1ccc(C2C(CNCCc3ccccc3)c3ccccc3CN2CCCCC(CN)NCc2ccccc2)cc1 (stereo not shown) [TRG 2411-80]
[1]; [3]
  IC50: 0.17 µM
[2]; [4]
  IC50: 1.83 µM

## COc1ccc(CNCC2c3ccccc3CN(CCCCC(N)CN)C2c2ccc(Oc3ccccc3)cc2)cc1 (stereo not shown) [TRG 2414-141]
[1]; [5]
  IC50: 2.04 µM
[2]; [6]
  IC50: 4.21 µM

## NCC(CCCCN1Cc2ccccc2C(CNCc2ccccc2)C1c1ccc(Cl)cc1Cl)NCc1ccccc1 (stereo not shown) [TRG 2414-31]
[1]; [5]
  IC50: 3.9 µM
[2]; [6]
  IC50: 7.03 µM

## NCC(CCCCN1Cc2ccccc2C(CNC2CCCCC2)C1c1ccccc1Br)NCc1ccccc1 (stereo not shown) [Cmpd 239]
[1]; [11]
  IC50: 3.3 µM
[2]; [12]
  IC50: 6.27 µM

## CCNc1ccc(C2C(CNCCc3ccccc3)c3ccccc3CN2CCCCC(CN)NCCc2ccc(Br)cc2)cc1 (mixture of isomers) [TRG 2411-41]
[1]; [3]
  IC50: 0.49 µM
[2]; [4]
  IC50: 1.64 µM

## CNC(CN)CCCCN1Cc2ccccc2C(CNC2CCCCC2)C1c1ccc(NCCc2ccc(Cl)c(Cl)c2)cc1 (stereo not shown) [TRG 2409-23]
[1]; [3]
  IC50: 4.77 µM
[2]; [4]
  IC50: 19.6 µM

## NCCNC(CN)CCN1Cc2ccccc2C(CNC2CCCCC2)C1c1ccc(Cl)cc1Cl (stereo not shown) [TRG 2408-103]
[1]; [8]
  IC50: 5.41 µM
[2]; [8]
  IC50: 8.8 µM

## CCCCNc1ccc(C2C(CNCCc3ccccc3)c3ccccc3CN2CCCC(CN)NCCCC)cc1 (stereo not shown) [TRG 2411-191]
[1]; [9]
  IC50: 0.12 µM
[2]; [10]
  IC50: 0.52 µM

## CC(C)Cc1ccc(C(C)CNC(CN)CCCCN2Cc3ccccc3C(CNC3CCCCCC3)C2c2cc(C(F)(F)F)cc(C(F)(F)F)c2)cc1 (stereo not shown) [TRG 2414-76]
[1]; [5]
  MC-1 IC50: no fit
[2]; [6]
  IC50: 54.4 µM

## COc1ccccc1CCNCC1c2ccccc2CN(CCCCC(CN)NCc2ccccc2)C1c1cc(C(F)(F)F)cc(C(F)(F)F)c1 (stereo not shown) [TRG 2414-51]
[1]; [5]
  IC50: 6.45 µM
[2]; [6]
  IC50: 2.16 µM

## COc1ccc(CCNCC2c3ccccc3CN(CCCCC(CN)NCCc3ccccc3)C2c2ccc(Cl)cc2Cl)cc1 (mixture of isomers) [TRG 2414-26]
[1]; [5]
  IC50: 3.95 µM
[2]; [6]
  IC50: 2.52 µM

## CCCOc1ccc(C2C(CNCc3cccc(OC)c3)c3ccccc3CN2CCCCC(CN)NCc2ccccc2)cc1 (stereo not shown) [TRG 2414-179]
[1]; [5]
  IC50: 0.998 µM
[2]; [6]
  IC50: 5.48 µM

## NCC(CCCCN1Cc2ccccc2C(CNC2CCCCC2)C1c1ccc(Cl)cc1Cl)NCc1ccccc1 (mixture of isomers) [TRG 2414-39]
[1]; [5]
  IC50: 2.12 µM
[2]; [6]
  IC50: 4.37 µM

## COc1ccc(CNCC2c3ccccc3CN(CCCCC(CN)NCC(C)c3ccc(CC(C)C)cc3)C2c2cc(C(F)(F)F)cc(C(F)(F)F)c2)cc1 (stereo not shown) [TRG 2414-64]
[1]; [5]
  IC50: 34.5 µM
[2]; [6]
  IC50: 45.5 µM
